This is an account of results in PubChem BioAssay (NCI).

Some test systems named below: EKVX NSCLC; HCT-116 colon; HCT-15 colon; HL-60(TB) leukemia; HOP-92 NSCLC; HT29 colon; KM12 colon; M14 melanoma; MOLT-4 leukemia; NCI-H23 lung; OVCAR-5 ovarian; SF-295 CNS; SK-MEL-2 melanoma; SK-MEL-28 melanoma; SK-OV-3 ovarian; SNB-19 CNS; SW-620 colon; U251 CNS; MCF7 breast; MDA-N.
Holding throughout (assay): NCI anticancer screen, dose series, 48 h

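Following 48 hours of exposure in 96-well plates, responses at five concentrations were used to interpolate endpoints linearly. The concentration for full growth arrest is given as TGI.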

For the compound `Cc1cn([C@@H]2C[C@H](CO)[C@@H](O)C2)c(=O)[nH]c1=O`, the TGI in the experiment on EKVX NSCLC, in the experiment with HCT-116 colon, with HCT-15 colon, in the experiment with HL-60(TB) leukemia, with HOP-92 NSCLC and with HT29 colon was > 100 µM each time. Also, the TGI in the experiment on KM12 colon, in the experiment on M14 melanoma, in the experiment with MOLT-4 leukemia, in the experiment on NCI-H23 lung, with OVCAR-5 ovarian and in the experiment on SF-295 CNS was > 100 µM each time. Also, the TGI with SK-MEL-2 melanoma, in the experiment with SK-MEL-28 melanoma, in the experiment with SK-OV-3 ovarian, in the experiment on SNB-19 CNS, with SW-620 colon and in the experiment on U251 CNS was > 100 µM each time.

`C=CCNC(=S)N=Nc1c(O)[nH]c2ccc([N+](=O)[O-])cc12`: the TGI in the experiment with EKVX NSCLC, in the experiment on HCT-116 colon, with HCT-15 colon, in the experiment on HL-60(TB) leukemia, in the experiment with HOP-92 NSCLC and in the experiment on HT29 colon was > 100 µM each time. Also, the TGI with KM12 colon, with M14 melanoma, in the experiment on MCF7 breast, in the experiment with MDA-N, with MOLT-4 leukemia and in the experiment with NCI-H23 lung was > 100 µM in each case. The TGI in the experiment on OVCAR-5 ovarian, with SF-295 CNS, in the experiment with SK-MEL-2 melanoma, in the experiment on SK-MEL-28 melanoma, in the experiment on SK-OV-3 ovarian and in the experiment with SNB-19 CNS was > 100 µM throughout. The TGI with SW-620 colon and in the experiment on U251 CNS was > 100 µM throughout.

On to `c1ccc2c(c1)c1c(n2CCOCCN2CCOCC2)CCCC1`, for which the TGI in the experiment with EKVX NSCLC was > 100 µM; in the experiment on HCT-116 colon, > 100 µM; in the experiment with HCT-15 colon it was > 100 µM; in the experiment on HL-60(TB) leukemia, 51.9 µM; in the experiment on HOP-92 NSCLC, 71.9 µM; in the experiment on HT29 colon, 31.6 µM. In addition, the TGI is > 100 µM with KM12 colon; 30.9 µM in the experiment on M14 melanoma; > 100 µM with MCF7 breast; > 100 µM in the experiment with MDA-N; 69.8 µM in the experiment with MOLT-4 leukemia; > 100 µM in the experiment with NCI-H23 lung. Also, the TGI is > 100 µM with OVCAR-5 ovarian; 50 µM with SF-295 CNS; 52.4 µM in the experiment with SK-MEL-2 melanoma; 52 µM in the experiment with SK-MEL-28 melanoma; > 100 µM with SK-OV-3 ovarian; > 100 µM in the experiment with SNB-19 CNS. In addition, the TGI in the experiment on SW-620 colon was > 100 µM; in the experiment with U251 CNS, 64.6 µM.

Consider `CCC1=NC(C(F)(F)F)(C(F)(F)F)N=C(N2CCOCC2)O1`, for which the TGI in the experiment with EKVX NSCLC, in the experiment on HCT-116 colon, with HCT-15 colon, with HL-60(TB) leukemia, in the experiment with HOP-92 NSCLC and with HT29 colon was > 100 µM each time. The TGI in the experiment on KM12 colon, with M14 melanoma, with MCF7 breast, in the experiment on MDA-N, in the experiment on MOLT-4 leukemia and in the experiment on NCI-H23 lung was > 100 µM each time. For the same compound, the TGI in the experiment with OVCAR-5 ovarian, in the experiment on SF-295 CNS, in the experiment with SK-MEL-2 melanoma, in the experiment on SK-MEL-28 melanoma, in the experiment with SK-OV-3 ovarian and in the experiment on SNB-19 CNS was > 100 µM in each case. In addition, the TGI with SW-620 colon and with U251 CNS was > 100 µM each time.

Take `N#CC1=C(c2ccccc2)NNC(c2ccc(Cl)cc2)CC1=O` (stereo not drawn): the TGI with HCT-116 colon, in the experiment on HCT-15 colon, with HL-60(TB) leukemia, in the experiment on HOP-92 NSCLC, in the experiment on HT29 colon and with KM12 colon was > 100 µM in each case. The TGI in the experiment with M14 melanoma is 68.9 µM; in the experiment with MOLT-4 leukemia it was > 100 µM; in the experiment on NCI-H23 lung it was > 100 µM; with OVCAR-5 ovarian, > 100 µM; with SF-295 CNS, 73.1 µM; in the experiment with SK-MEL-2 melanoma, 90.4 µM. Further, the TGI with SK-MEL-28 melanoma, in the experiment on SK-OV-3 ovarian, in the experiment on SNB-19 CNS, with SW-620 colon and in the experiment with U251 CNS was > 100 µM throughout.

With `Cc1ccc([N+](=O)[O-])cc1N=NC(=O)NNc1cc([N+](=O)[O-])ccc1C`, the TGI in the experiment with HCT-116 colon is 36.8 µM; in the experiment with HCT-15 colon, 74.3 µM; in the experiment on HL-60(TB) leukemia, > 100 µM; with HOP-92 NSCLC it was > 100 µM; in the experiment with HT29 colon it was 45 µM; with KM12 colon it was 49.3 µM. For the same compound, the TGI with M14 melanoma is 53.5 µM; in the experiment with MCF7 breast it was 67.3 µM; in the experiment on MDA-N, 82.8 µM; with MOLT-4 leukemia it was 41 µM; with NCI-H23 lung, > 100 µM; in the experiment on OVCAR-5 ovarian it was > 100 µM. In addition, the TGI in the experiment with SF-295 CNS was 40.9 µM; with SK-MEL-2 melanoma, > 100 µM; with SK-MEL-28 melanoma, 87.5 µM; in the experiment with SK-OV-3 ovarian it was 36 µM; in the experiment on SNB-19 CNS it was > 100 µM; with U251 CNS it was 97.6 µM.
